Patent publication US10633547B2, “Method for reducing microbial attack of industrial products” (Thor GmbH, priority 2016, dated 2020)

Experiments:
[1] = decomposition of 2-methylisothiazolin-3-one in aqueous dispersion paint using sodium thiosulfate; assay type: physicochemical
Excerpt: However, it is disadvantageous that, according to the described method, said isothiazolinones, particularly MIT, are not quantitatively and/or irreversibly destroyed, as a result of which they are still contained in the products and reaction products and still can cause problems for people prone to allergic reactions, and/or cause contact dermatitis or aerogenic contact dermatitis in highly sensitive people.

[2] = decomposition of 5-chloro-2-methylisothiazolin-3-one in dispersion paint by cysteine, HPLC; assay type: physicochemical; conditions: 3 hours after adding 50 ppm cysteine, based on the dispersion paint
Excerpt: In order to produce a paint, which is harmless for allergy suffers with respect to the 5-chloro-2-methylisothiazolin-3-one and 2-methylisothiazolin-3-one, from the dispersion paint, which contained significant quantities of 5-chloro-2-methylisothiazolin-3-one, these isothiazolin-3-ones were decomposed by adding 50 ppm cysteine, based on the dispersion paint.

[3] = tested on: microorganisms introduced by the individual components of the paint; experiment: microbiological testing of dispersion paint preserved with 5-chloro-2-methylisothiazolin-3-one; assay type: cell-based; conditions: 20 ppm 5-chloro-2-methylisothiazolin-3-one with <1 wt % 2-methylisothiazolin-3-one; water-based dispersion paint; growth detectable in individual components
Method: 20 ppm 5-chloro-2-methylisothiazolin-3-one, with a content of 2-methylisothiazolin-3-one of <1 wt %, was added to a preservative-free styrene acrylate dispersion. The styrene acrylate dispersion preserved in this manner was then used to produce a water-based dispersion paint. The paint produced had the following composition: • 25.7 wt % water • 0.2 wt % acrylate-based wetting and dispersion agents • 0.2 wt % mineral oil-based defoamer • 2.0 wt % water softener (sodium polyphosphate) • 0.2 wt % ammonia • 4.0 wt % titanium oxide (pigment) • 51.0 wt % calcium carbonate (filler) • 5.0 wt % talcum (filler) • 0.4 wt % cellulose ether • 2.0 wt % organic solvent for lowering the minimum film-forming temperature • 9.0 wt % of the styrene acrylate dispersion preserved with 20 ppm 5-chloro-2-methylisothiazolin-3-one • 20 ppm 5-chloro-2-methylisothiazolin-3-one, with a content of 2-methylisothiazolin-3-one of <1 wt %

[4] = tested on: newly introduced microorganisms; experiment: shelf life of dispersion paint after post-preservation; conditions: 50 ppm 2-methyl-1,2-benzisothiazolin-3-one and 10 ppm zinc oxide added after decomposition of CMIT by cysteine
Method: The paint produced in this manner was now free of microorganisms through the use of the effective broad-spectrum biocide 5-chloro-2-methylisothiazolin-3-one, but susceptible to newly introduced microorganisms, which can infiltrate the paint during storage, due to the decomposition of the biocide by cysteine.
In order to protect the paint from such a microbial attack during storage, 50 ppm 2-methyl-1,2-benzisothiazolin-3-one and 10 ppm zinc oxide, based on the dispersion paint, were added to the dispersion paint for post-preservation.

SMILES: Cn1sccc1=O [2-methylisothiazolin-3-one]
- destruction of 2-methylisothiazolin-3-one using sodium thiosulfate [1]: could not be quantitatively or irreversibly destroyed

SMILES: Cn1sc(Cl)cc1=O [5-chloro-2-methylisothiazolin-3-one]
- 5-chloro-2-methylisothiazolin-3-one detectable in the dispersion paint by HPLC [2]: no more 5-chloro-2-methylisothiazolin-3-one was detectable
- microbial growth in the dispersion paint [3]: no microbial growth was found

SMILES: Cn1sc2ccccc2c1=O [2-methyl-1,2-benzisothiazolin-3-one]
- shelf life of the paint [4]: at least 6 months
